Data from patent US9556115B2, “Sulfonamides for the prevention of diabetes” (Dompé S.P.A., priority 2009, dated 2017).

Test system: MLD-STZ-induced diabetes in male C57BL/6J mice
Experiment: Diabetes induction after multiple low dose (MLD)-streptozotocin (STZ) injections
Format: in vivo, mouse
Settings: for glycemic levels after development of diabetes vs control mice / time to develop the disease compared to controls: mice injected with STZ, summary statement
Method: Injection of susceptible mice strains with multiple low doses of (STZ) provokes a condition with clinical and histoimmunological features similar to human Type 1 diabetes mellitus (DM). It has been established that five daily doses of 40 mg/kg/day of STZ are required for delayed onset, sustained and progressive hyperglycemia and insulitis in male C57BL/6 mice.
This model was previously used to study the role of proinflammatory cytokines in the development of Type 1 diabetes. 12 male C57BL/6J mice received MLD-STZ treatment. STZ was injected i.p. at a dose of 40 mg/kg/day, for 5 consecutive days. Glucose concentrations in venous blood was measured every day starting from the first day of treatment. Mice with glycemia over 250 mg/dl on three consecutive tests were considered diabetic, with the first detection of hyperglycemia taken as the date of diabetes onset. The mice were monitored for up to 60 days post first STZ injection. Reparixin was administered by s.c. continuous infusion starting from day −1 up to day 7 after first STZ injection at a dose of 8 mg/h/kg.
Male C57BL/6J mice were injected i.p. with (ML)-streptozotocin (STZ) at a dose of 40 mg/kg/day, for 5 consecutive days. Glucose concentrations in venous blood were measured every day starting from the first day of treatment (day 0). Mice with glycaemia over 250 mg/dl on three consecutive tests were considered diabetic, with the first detection of hyperglycemia taken as the date of diabetes onset. The mice were followed for up to 60 days post first STZ injection. Meraxin was administered per os at a dose of 15 mg/kg for 7 or 14 days, starting from day −1 of first STZ injection.
In a second set of experiments, the treatment with Meraxin for 14 days was started +5 (n=4) days after the first STZ injection to mimic the clinical setting of diabetes onset.

SMILES: C[C@@H](C(=O)NS(C)(=O)=O)c1ccc(OS(=O)(=O)C(F)(F)F)cc1 [Meraxin, R(-)-2-[(4′-trifluoromethanesulfonyloxy)phenyl]propionyl-methanesulfonamide]
- diabetes onset (Meraxin for 14 days started day +5 after first STZ injection (up to day 19), n=4): clearly prevented diabetes onset
- glycaemic levels vs vehicle-treated mice (Meraxin for 14 days started day +5 after first STZ injection, whole 2-month observation period): constantly and significantly lower
- median diabetes-free time (Meraxin per os 15 mg/kg for 7 days starting from day -1, n=8, p=0.67 vs ctrl): 13+2.8 days
- median diabetes-free time (Meraxin per os 15 mg/kg for 14 days starting from day -1, n=8, p=0.016 vs ctrl): 29+16
- glycemic levels after development of diabetes vs control mice: significantly lower
- time to develop the disease compared to controls: more than double the time

SMILES: CC(C)Cc1ccc([C@@H](C)C(=O)NS(C)(=O)=O)cc1 [Reparixin, R(-)-2-[(4-isobutylphenyl)propionyl]-methanesulfonamide]
- glycaemia levels after diabetes development vs vehicle-treated group (Reparixin s.c. continuous infusion 8 mg/h/kg day -1 to day 7, whole two-month observation period): constantly and significantly lower
- median diabetes free time (Reparixin s.c. continuous infusion 8 mg/h/kg from day -1 up to day 7 after first STZ injection, n=8, p=0.026 vs ctrl): 27 ± 15 days
- glycemic levels after development of diabetes vs control mice: significantly lower
- time to develop the disease compared to controls: more than double the time
